Our source for the IC50 and Ki values is ChEMBL document CHEMBL1909046, “DrugMatrix in vitro pharmacology data”.

Chain of Cannabinoid receptor 1 (P21554 whole entry): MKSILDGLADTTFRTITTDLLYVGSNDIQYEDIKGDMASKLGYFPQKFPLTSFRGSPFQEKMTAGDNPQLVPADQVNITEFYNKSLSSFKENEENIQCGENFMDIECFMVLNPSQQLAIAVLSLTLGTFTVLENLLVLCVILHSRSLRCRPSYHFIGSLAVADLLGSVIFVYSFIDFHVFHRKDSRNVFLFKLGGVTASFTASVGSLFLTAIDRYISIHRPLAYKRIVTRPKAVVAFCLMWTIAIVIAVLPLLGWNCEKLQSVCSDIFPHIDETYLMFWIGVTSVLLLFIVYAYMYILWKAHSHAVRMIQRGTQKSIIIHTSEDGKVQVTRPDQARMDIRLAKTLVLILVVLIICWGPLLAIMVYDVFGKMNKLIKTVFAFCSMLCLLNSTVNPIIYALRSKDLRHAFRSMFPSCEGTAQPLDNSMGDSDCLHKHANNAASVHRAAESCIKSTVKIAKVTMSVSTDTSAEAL

System in one data set: not listed separately
Kind of data set: DRUGMATRIX: Phosphodiesterase PDE3 enzyme inhibition (substrate: [3H]cAMP + cAMP). The data set is classed as tissue-based, Homo sapiens. The following applies: platelet; Not Active = under 50% inhibition at 10 µM.
With `COC1=CC(=O)C[C@@H](C)[C@]12Oc1c(Cl)c(OC)cc(OC)c1C2=O` [GRISEOFULVIN], the IC50 entry is listed as “Not Active” and the Ki entry was “Not Active”.
Consider `Nc1nc(=O)[nH]cc1F` [FLUCYTOSINE], for which the IC50 result is on record as “Not Active” and the Ki entry is “Not Active”.
For the compound `CNC(=O)Oc1ccc2c(c1)[C@]1(C)CCN(C)[C@@H]1N2C` [PHYSOSTIGMINE], the IC50 entry was “Not Active” and the Ki result is “Not Active”.

Another data set has as its target T1, Alpha-2C adrenergic receptor (Homo sapiens, UniProt P18825).
T1 sequence (P18825 whole entry): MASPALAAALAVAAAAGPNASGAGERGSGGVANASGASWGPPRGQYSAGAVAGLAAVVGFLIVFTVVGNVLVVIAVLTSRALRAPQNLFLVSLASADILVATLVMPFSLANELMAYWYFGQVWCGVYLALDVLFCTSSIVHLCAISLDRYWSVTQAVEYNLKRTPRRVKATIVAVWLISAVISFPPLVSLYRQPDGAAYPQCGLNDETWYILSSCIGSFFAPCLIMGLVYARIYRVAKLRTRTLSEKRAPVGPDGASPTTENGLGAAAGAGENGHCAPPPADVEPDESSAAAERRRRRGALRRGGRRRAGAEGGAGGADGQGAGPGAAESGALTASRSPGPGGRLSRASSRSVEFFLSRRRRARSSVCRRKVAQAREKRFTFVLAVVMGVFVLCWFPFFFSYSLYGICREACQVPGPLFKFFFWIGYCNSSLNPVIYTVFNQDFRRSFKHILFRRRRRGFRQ
The data set is described as follows: DRUGMATRIX: Adrenergic Alpha-2C radioligand binding (ligand: [3H] MK-912). The following applies: sf9. It is filed as cell membranes, Sf9, Membrane.
For `COC1=CC(=O)C[C@@H](C)[C@]12Oc1c(Cl)c(OC)cc(OC)c1C2=O` [GRISEOFULVIN], the IC50 result was “Not Active”.
On to `Nc1nc(=O)[nH]cc1F` [FLUCYTOSINE], for which the IC50 result is “Not Active”.
Turning to `CNC(=O)Oc1ccc2c(c1)[C@]1(C)CCN(C)[C@@H]1N2C` [PHYSOSTIGMINE], the IC50 entry was “Not Active”.

A further data set has as its target Protein phosphatase 3 catalytic subunit alpha (Homo sapiens, UniProt Q08209). Also on record: species or system Escherichia coli.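 Note: inhibition of calcineurin (PP2B) enzyme activity, measured with DiFMUP as the substrate; in other assays of this panel Not Active means under 50% inhibition at 10 µM.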
Details: not given
Turning to `COC1=CC(=O)C[C@@H](C)[C@]12Oc1c(Cl)c(OC)cc(OC)c1C2=O` [GRISEOFULVIN], the IC50 entry is reported as “Not Active”.
With `Nc1nc(=O)[nH]cc1F` [FLUCYTOSINE], the IC50 entry is on record as “Not Active”.
As for `CNC(=O)Oc1ccc2c(c1)[C@]1(C)CCN(C)[C@@H]1N2C` [PHYSOSTIGMINE], the IC50 result was “Not Active”.

For another data set, the target named is T2, 5-hydroxytryptamine receptor 1A (Rattus norvegicus, UniProt P19327). Note: in other assays of this panel Not Active means under 50% inhibition at 10 µM.
T2 sequence (P19327 whole entry): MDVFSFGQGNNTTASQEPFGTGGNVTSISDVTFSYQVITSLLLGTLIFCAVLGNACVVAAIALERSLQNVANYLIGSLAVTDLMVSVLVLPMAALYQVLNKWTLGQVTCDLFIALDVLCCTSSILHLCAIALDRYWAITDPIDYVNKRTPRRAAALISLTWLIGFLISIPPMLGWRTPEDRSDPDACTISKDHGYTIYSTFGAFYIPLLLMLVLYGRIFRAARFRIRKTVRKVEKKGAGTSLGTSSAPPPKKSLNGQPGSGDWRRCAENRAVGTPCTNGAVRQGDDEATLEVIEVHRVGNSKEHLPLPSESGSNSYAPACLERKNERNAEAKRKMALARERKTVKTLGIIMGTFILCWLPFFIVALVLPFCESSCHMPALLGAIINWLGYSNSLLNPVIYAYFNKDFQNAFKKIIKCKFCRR
The data set is classed as cell membranes, CHO-K1, Membrane. Conditions: cho-k1.
Turning to `COC1=CC(=O)C[C@@H](C)[C@]12Oc1c(Cl)c(OC)cc(OC)c1C2=O` [GRISEOFULVIN], the IC50 entry is “Not Active”.
On the same count and under the same terms, to `Nc1nc(=O)[nH]cc1F` [FLUCYTOSINE] belongs “Not Active”.
Turning to `CNC(=O)Oc1ccc2c(c1)[C@]1(C)CCN(C)[C@@H]1N2C` [PHYSOSTIGMINE], the IC50 result is reported as “Not Active”.

System in the next data set: not listed separately
The data set is described as follows: DRUGMATRIX: GABAA, Flunitrazepam, Central radioligand binding (ligand: [3H] Flunitrazepam). The data set is classed as cell membranes, Rattus norvegicus, Wistar, Brain, Membrane. The following applies: Not Active = under 50% inhibition at 10 µM.
With `COC1=CC(=O)C[C@@H](C)[C@]12Oc1c(Cl)c(OC)cc(OC)c1C2=O` [GRISEOFULVIN], the IC50 result is listed as “Not Active” and the Ki entry is given as “Not Active”.
As to `Nc1nc(=O)[nH]cc1F` [FLUCYTOSINE], the IC50 result is recorded as “Not Active” and the Ki result was “Not Active”.
For `CNC(=O)Oc1ccc2c(c1)[C@]1(C)CCN(C)[C@@H]1N2C` [PHYSOSTIGMINE], the IC50 entry is given as “Not Active” and the Ki result was “Not Active”.

For another data set, the target named is Cytochrome P450 2C9 (Homo sapiens, UniProt P11712). Conditions: bti-tn-5b1-4. Note: in other assays of this panel Not Active means under 50% inhibition at 10 µM.
Chain of Cytochrome P450 2C9 (P11712 whole entry): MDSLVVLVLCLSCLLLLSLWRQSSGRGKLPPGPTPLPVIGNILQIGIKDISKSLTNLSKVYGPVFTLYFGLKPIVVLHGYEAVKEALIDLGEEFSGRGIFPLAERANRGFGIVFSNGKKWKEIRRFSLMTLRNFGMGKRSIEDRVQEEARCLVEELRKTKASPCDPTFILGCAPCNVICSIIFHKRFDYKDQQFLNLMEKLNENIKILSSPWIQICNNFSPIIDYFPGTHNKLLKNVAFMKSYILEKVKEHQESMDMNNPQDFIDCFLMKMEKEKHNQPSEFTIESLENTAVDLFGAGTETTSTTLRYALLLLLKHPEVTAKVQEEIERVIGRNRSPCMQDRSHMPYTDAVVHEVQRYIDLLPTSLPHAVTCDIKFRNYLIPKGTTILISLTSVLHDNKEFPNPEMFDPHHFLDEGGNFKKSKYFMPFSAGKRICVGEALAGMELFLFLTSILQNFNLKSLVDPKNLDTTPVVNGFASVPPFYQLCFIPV
In the case of `COC1=CC(=O)C[C@@H](C)[C@]12Oc1c(Cl)c(OC)cc(OC)c1C2=O` [GRISEOFULVIN], the IC50 entry is “Not Active” and the Ki entry is “Not Active”.
Turning to `Nc1nc(=O)[nH]cc1F` [FLUCYTOSINE], the IC50 result is recorded as “Not Active” and the Ki result was “Not Active”.
As for `CNC(=O)Oc1ccc2c(c1)[C@]1(C)CCN(C)[C@@H]1N2C` [PHYSOSTIGMINE], the IC50 entry is “Not Active” and the Ki result is “Not Active”.

The target of a further data set is Beta-2 adrenergic receptor (Homo sapiens, UniProt P07550). Kind of data set: DRUGMATRIX: Adrenergic beta2 radioligand binding (ligand: [3H] CGP-12177). The data set is classed as cell membranes, Membrane. Conditions: cho; Not Active = under 50% inhibition at 10 µM.
Chain of Beta-2 adrenergic receptor (P07550 whole entry): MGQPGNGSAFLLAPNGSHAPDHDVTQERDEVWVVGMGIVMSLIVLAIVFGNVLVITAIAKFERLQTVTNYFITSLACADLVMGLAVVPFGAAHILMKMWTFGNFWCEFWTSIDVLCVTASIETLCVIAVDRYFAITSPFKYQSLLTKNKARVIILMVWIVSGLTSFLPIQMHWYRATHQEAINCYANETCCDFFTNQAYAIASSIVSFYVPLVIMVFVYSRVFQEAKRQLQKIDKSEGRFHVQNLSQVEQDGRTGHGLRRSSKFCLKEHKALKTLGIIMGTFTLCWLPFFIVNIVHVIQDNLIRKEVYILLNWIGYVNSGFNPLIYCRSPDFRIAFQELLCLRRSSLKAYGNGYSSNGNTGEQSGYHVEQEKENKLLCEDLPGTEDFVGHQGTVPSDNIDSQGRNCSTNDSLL
Consider `COC1=CC(=O)C[C@@H](C)[C@]12Oc1c(Cl)c(OC)cc(OC)c1C2=O` [GRISEOFULVIN], for which the IC50 entry is recorded as “Not Active”.
In the case of `Nc1nc(=O)[nH]cc1F` [FLUCYTOSINE], the IC50 entry is on record as “Not Active”.
On to `CNC(=O)Oc1ccc2c(c1)[C@]1(C)CCN(C)[C@@H]1N2C` [PHYSOSTIGMINE], for which the IC50 result is “Not Active”.

For the next data set, the target named is Sodium-dependent noradrenaline transporter (Homo sapiens, UniProt P23975). Kind of data set: DRUGMATRIX: Norepinephrine Transporter radioligand binding (ligand: [125I] RTI-55). The data set is classed as cell membranes, MDCK, Membrane. The following applies: mdck; Not Active = under 50% inhibition at 10 µM.
Chain of Sodium-dependent noradrenaline transporter (P23975 whole entry): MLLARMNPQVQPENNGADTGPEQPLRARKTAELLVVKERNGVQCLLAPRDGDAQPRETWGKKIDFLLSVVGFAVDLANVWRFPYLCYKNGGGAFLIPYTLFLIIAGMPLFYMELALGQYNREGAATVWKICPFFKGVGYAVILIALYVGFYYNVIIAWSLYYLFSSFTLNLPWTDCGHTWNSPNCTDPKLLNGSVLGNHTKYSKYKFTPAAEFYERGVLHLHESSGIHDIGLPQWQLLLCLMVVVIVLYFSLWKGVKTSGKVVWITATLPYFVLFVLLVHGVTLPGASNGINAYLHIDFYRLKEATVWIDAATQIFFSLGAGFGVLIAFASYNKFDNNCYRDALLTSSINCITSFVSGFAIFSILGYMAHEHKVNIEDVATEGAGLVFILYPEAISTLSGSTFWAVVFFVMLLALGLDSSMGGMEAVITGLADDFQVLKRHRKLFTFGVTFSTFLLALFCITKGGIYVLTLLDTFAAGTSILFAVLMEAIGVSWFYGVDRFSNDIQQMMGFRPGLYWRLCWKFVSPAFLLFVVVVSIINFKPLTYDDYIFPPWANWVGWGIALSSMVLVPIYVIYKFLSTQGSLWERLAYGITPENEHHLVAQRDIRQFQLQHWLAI
As for `COC1=CC(=O)C[C@@H](C)[C@]12Oc1c(Cl)c(OC)cc(OC)c1C2=O` [GRISEOFULVIN], the IC50 result is reported as “Not Active”.
Take `Nc1nc(=O)[nH]cc1F` [FLUCYTOSINE]: the IC50 entry is given as “Not Active”.
The same measure, in the same setting: next, `CNC(=O)Oc1ccc2c(c1)[C@]1(C)CCN(C)[C@@H]1N2C` [PHYSOSTIGMINE]: “Not Active”.

System in a further data set: not listed separately
Kind of data set: DRUGMATRIX: Atrial Natriuretic Factor (ANF) radioligand binding (ligand: [125I] ANF (rat)). The following applies: Not Active = under 50% inhibition at 10 µM. The data set is classed as cell membranes, Cavia porcellus, Dunkin-Hartley, Adrenal gland, Membrane.
For the compound `COC1=CC(=O)C[C@@H](C)[C@]12Oc1c(Cl)c(OC)cc(OC)c1C2=O` [GRISEOFULVIN], the IC50 result was “Not Active” and the Ki result is “Not Active”.
`Nc1nc(=O)[nH]cc1F` [FLUCYTOSINE]: the IC50 entry is given as “Not Active” and the Ki entry is listed as “Not Active”.
In the case of `CNC(=O)Oc1ccc2c(c1)[C@]1(C)CCN(C)[C@@H]1N2C` [PHYSOSTIGMINE], the IC50 entry was “Not Active” and the Ki entry was “Not Active”.

The next data set has as its target T3, Endothelin-1 receptor (Homo sapiens, UniProt P25101). Note: in other assays of this panel Not Active means under 50% inhibition at 10 µM.
T3 sequence (P25101 whole entry): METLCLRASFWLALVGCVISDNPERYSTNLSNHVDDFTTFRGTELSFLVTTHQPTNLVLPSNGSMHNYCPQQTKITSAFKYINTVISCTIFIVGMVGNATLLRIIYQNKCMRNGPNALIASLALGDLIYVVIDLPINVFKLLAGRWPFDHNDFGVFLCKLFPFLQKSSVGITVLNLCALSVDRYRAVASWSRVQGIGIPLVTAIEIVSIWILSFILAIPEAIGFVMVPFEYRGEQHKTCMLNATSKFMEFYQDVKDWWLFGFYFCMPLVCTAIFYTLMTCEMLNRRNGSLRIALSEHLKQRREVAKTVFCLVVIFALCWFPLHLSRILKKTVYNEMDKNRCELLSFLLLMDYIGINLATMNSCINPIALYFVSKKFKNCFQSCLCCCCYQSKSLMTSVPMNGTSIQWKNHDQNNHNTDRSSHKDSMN
It is filed as cell membranes, Membrane. The following applies: cho-k1.
For `COC1=CC(=O)C[C@@H](C)[C@]12Oc1c(Cl)c(OC)cc(OC)c1C2=O` [GRISEOFULVIN], the IC50 result is reported as “Not Active”.
On to `Nc1nc(=O)[nH]cc1F` [FLUCYTOSINE], for which the IC50 result is given as “Not Active”.
In the case of `CNC(=O)Oc1ccc2c(c1)[C@]1(C)CCN(C)[C@@H]1N2C` [PHYSOSTIGMINE], the IC50 entry is given as “Not Active”.

The target in a further data set is Kappa-type opioid receptor (Homo sapiens, UniProt P41145). The data set is described as follows: DRUGMATRIX: Opiate kappa (OP2, KOP) radioligand binding (ligand: [3H] Diprenorphine). The data set is classed as cell membranes, HEK293, Membrane. The following applies: hek293; Not Active = under 50% inhibition at 10 µM.
Chain of Kappa-type opioid receptor (P41145 whole entry): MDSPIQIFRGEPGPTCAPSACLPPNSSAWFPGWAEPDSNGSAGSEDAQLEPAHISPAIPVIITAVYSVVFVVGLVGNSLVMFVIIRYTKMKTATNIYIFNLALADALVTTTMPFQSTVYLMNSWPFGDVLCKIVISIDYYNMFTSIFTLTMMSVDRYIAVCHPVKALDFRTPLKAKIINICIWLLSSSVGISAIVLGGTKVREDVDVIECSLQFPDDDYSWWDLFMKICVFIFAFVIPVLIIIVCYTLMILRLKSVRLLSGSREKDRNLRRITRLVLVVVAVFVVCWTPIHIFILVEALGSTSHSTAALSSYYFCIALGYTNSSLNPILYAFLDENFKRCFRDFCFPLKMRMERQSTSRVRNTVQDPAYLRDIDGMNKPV
`COC1=CC(=O)C[C@@H](C)[C@]12Oc1c(Cl)c(OC)cc(OC)c1C2=O` [GRISEOFULVIN]: the IC50 result was “Not Active”.
As for `Nc1nc(=O)[nH]cc1F` [FLUCYTOSINE], the IC50 result was “Not Active”.
Take `CNC(=O)Oc1ccc2c(c1)[C@]1(C)CCN(C)[C@@H]1N2C` [PHYSOSTIGMINE]: the IC50 result is reported as “Not Active”.

System in the next data set: not listed separately
The data set is described as follows: DRUGMATRIX: Calcium Channel Type L, Dihydropyridine radioligand binding (ligand: [3H] Nitrendipine). Conditions: Not Active = under 50% inhibition at 10 µM. It is filed as cell membranes, Rattus norvegicus, Wistar, Cerebral cortex, Membrane.
Consider `COC1=CC(=O)C[C@@H](C)[C@]12Oc1c(Cl)c(OC)cc(OC)c1C2=O` [GRISEOFULVIN], for which the IC50 result is given as “Not Active” and the Ki entry is listed as “Not Active”.
As to `Nc1nc(=O)[nH]cc1F` [FLUCYTOSINE], the IC50 result is on record as “Not Active” and the Ki result is given as “Not Active”.
Consider `CNC(=O)Oc1ccc2c(c1)[C@]1(C)CCN(C)[C@@H]1N2C` [PHYSOSTIGMINE], for which the IC50 entry is “Not Active” and the Ki entry was “Not Active”.

For the next data set, the target named is T4, Muscarinic acetylcholine receptor M2 (Homo sapiens, UniProt P08172). Note: in other assays of this panel Not Active means under 50% inhibition at 10 µM.
T4 sequence (P08172 whole entry): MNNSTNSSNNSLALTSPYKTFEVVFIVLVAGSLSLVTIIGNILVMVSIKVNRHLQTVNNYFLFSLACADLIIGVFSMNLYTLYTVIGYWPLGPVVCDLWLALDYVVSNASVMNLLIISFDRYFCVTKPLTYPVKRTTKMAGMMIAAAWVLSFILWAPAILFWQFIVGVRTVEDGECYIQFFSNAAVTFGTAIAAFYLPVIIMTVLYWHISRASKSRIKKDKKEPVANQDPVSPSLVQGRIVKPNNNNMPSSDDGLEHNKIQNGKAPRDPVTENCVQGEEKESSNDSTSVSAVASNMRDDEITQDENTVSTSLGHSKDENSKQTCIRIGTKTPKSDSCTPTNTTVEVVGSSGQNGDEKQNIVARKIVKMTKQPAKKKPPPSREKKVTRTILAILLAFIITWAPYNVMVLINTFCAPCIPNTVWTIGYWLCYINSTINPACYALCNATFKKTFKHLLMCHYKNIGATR
The data set is classed as cell membranes, CHO-K1, Membrane. Conditions: cho-k1.
On to `COC1=CC(=O)C[C@@H](C)[C@]12Oc1c(Cl)c(OC)cc(OC)c1C2=O` [GRISEOFULVIN], for which the IC50 entry is recorded as “Not Active”.
Same read-out and setting: next, `Nc1nc(=O)[nH]cc1F` [FLUCYTOSINE]: “Not Active”; `CNC(=O)Oc1ccc2c(c1)[C@]1(C)CCN(C)[C@@H]1N2C` [PHYSOSTIGMINE]: “Not Active”.

A further data set addresses Cannabinoid receptor 1 (Homo sapiens, UniProt P21554). It is filed as cell membranes, Membrane. Conditions: chem-1.
Consider `COC1=CC(=O)C[C@@H](C)[C@]12Oc1c(Cl)c(OC)cc(OC)c1C2=O` [GRISEOFULVIN], for which the IC50 result was “Not Active”.
As to `Nc1nc(=O)[nH]cc1F` [FLUCYTOSINE], the IC50 entry is on record as “Not Active”.
Turning to `CNC(=O)Oc1ccc2c(c1)[C@]1(C)CCN(C)[C@@H]1N2C` [PHYSOSTIGMINE], the IC50 entry was “Not Active”.
